Experimental data: EP1484329A1, “Indole derivatives with apoptosis inducing activity” (Zentaris GmbH, priority 2003, dated 2004)
In brackets after ≈: the same amount, converted by molar mass. Like-named read-outs stand apart in the source and are kept apart here.

Key:
[1] = test system: Salmonella thyphimurium TA98; format: cell-based; details: for AMES TA98 mit S9: with rat liver S9; for AMES TA98 ohne S9: without S9
Method: (§1) Die Verbindung 2 wurde in einem Fluktuationsassay gegenüber den Mutanten-Stämmen TA98 und TA100 des Bakteriums Salmonella thyphimurium bei drei Konzentrationen (2.5; 5 und 10µM) auf Mutagenität hin untersucht. Die Mutagenitätsuntersuchungen wurden ferner in Gegenwart des Rattenleberenzyms S9 durchgeführt.

[2] = test system: Salmonella thyphimurium TA100; format: cell-based; details: for AMESTA100 mit S9: with rat liver S9; for AMESTA100 ohne S9: without S9
Method: as §1

SF-268 = experiment: XTT proliferation assay, SF-268; format: cell-based; details: Homo sapiens, read-out: XTT Proliferationsassay, EC50 SF-268
From the text: (§2) Die Substanzen 1,2, 4-6 wurden in einem Proliferationstest an etablierten Tumorzelllinien auf ihre anti-proliferative Aktivität hin untersucht (D.A. Scuderio et al. Cancer Res. 1988, 48, 4827-4833). Der verwendete Test bestimmt die zelluläre Dehydrogenase-Aktivität und ermöglicht eine Bestimmung der Zellvitalität und indirekt der Zellzahl. Bei den verwendeten Zelllinien handelt es sich um die humane Cervixkarzinom Zelllinie KB/HeLa (ATCC CCL17), die ovariale Adenokarzinomzelllinie SKOV-3 (ATCC HTB77), die humane Glioblastom Zelllinie SF-268 (NCI 503138) und die Lungenkarzinom Zelllinie NCI-H460 (NCI 503473). Des weiteren wurde zur Untersuchung der Zellzyklus-spezifischen Wirkung der Substanz ein RKOp27 Zellsystem verwendet (M. Schmidt et al. Oncogene19(20):2423-9, 2000). Bei RKO handelt es sich um eine humane Kolonkarzinomlinie, in der der Zellzyklusinhibitor p27 ^kip1 mittels des Ecdyson Expressionssystems induziert zur Expression gebracht und zu einem Zellzyklusarrest spezifisch in G2 geführt werden kann. Eine unspezifisch wirkende Substanz hemmt die Proliferation unabhängig davon, ob die RKO Zelle in G1 oder G2 arretiert ist oder nicht. Zellzyklus-spezifische Substanzen wie beispielsweise Tubulininhibitoren sind hingegen nur dann zytotoxisch, wenn Zellen nicht arretiert sind und der Zellzyklus durchlaufen wird. In Tabelle 1 ist die zytotoxische bzw. wachstumshemmende Aktivität der beschriebenen Verbindungen mit / ohne Expression von p27^kip1gezeigt. Die getesteten Verbindungen zeigten im induzierten Zustand von p27^kiP1 keine zytotoxische Aktivität. Die Ergebnisse zeigen eine sehr potente Hemmung der Proliferation ausgewählter Tumorzelllinien durch die genannten Substanzen.

KB/HeLa Zellen = experiment: Cell cycle analysis (G2/M arrest); format: cell-based; details: Homo sapiens, read-out: EC50 in nM (50% cells in G2/M)
Method: Für die Zellzyklusanalyse wurden KB/HeLa Zellen mit den Testsubstanzen in unterschiedlichen Konzentrationen (0.1-1000 nM) 24 Stunden bei 37°C behandelt.
Der prozentuale Anteil der in der G2/M Phase des Zellzyklus arrettierten Zellen nach Behandlung mit Referenz- oder ausgewählten Testsubstanzen ist in der nachfolgenden Tabelle 5 dargestellt. Die Ergebnisse wurden mit einer speziellen Analysesoftware (ModFit™) ausgewertet.

NCI-H460 = experiment: XTT proliferation assay, NCI-H460; format: cell-based; details: Homo sapiens, read-out: XTT Proliferationsassay, EC50 NCI-H460
From the text: as §2

[3] = test system: humanen Xenograft-Modellen; experiment: In vivo activity in xenograft models; set-up: species or system human; details: Hautkrebs, Nierenzellkarzinom und Brustkrebs
From the text: Die in vivo Aktivität der Verbindung 2 wurde an verschiedenen humanen Xenograft-Modellen überprüft.

[4] = format: in vivo, Mäuse (CD-1 Mausstamm); details: for Effekte 7 Tage nach Gabe / Effekte 1 h nach Gabe / Effekte 2 h nach Gabe / Effekte 24 h nach Gabe / Temp. (rektal): single dose; for Temp. (rektal): measured 1 hour after application
Method: Zur Beurteilung und Abschätzung möglicher Nebenwirkungen (neurodegenerative, phsychotrope Effekte etc.) bzw. toxischer Effekte ausgehend von der Verbindung 2 wurden Mäuse (CD-1 Mausstamm) in einem modifizierten Irwin-Grid Modell bei einmaliger Gabe (5, 10 und 20 mg/kg; p.o.) über eine Zeitdauer von 7 Tagen beobachtet (S. Irwin et al. Psychopharmacologia 1968, 13, 222-257). Die Ergebnisse hierzu werden in nachfolgender Tabelle 7 gezeigt: Tabelle 7: […]

U-937 Zelllinie = experiment: CDDplus nucleosome ELISA (apoptosis detection); format: cell-based; details: U-937, 0.1-1000nM, 4-24h
Method: Zum Nachweis der Nucleosomen Partikel wurde der von der Firma Roche Molecular Biochemicals beschriebene CDD^plus Nucleosomen ELISA Test eingesetzt. Hierzu untersuchte man die Verbindung 2 an der U-937 Zelllinie bei unterschiedlichen Konzentrationen (0.1-1000nM) und bei unterschiedlicher zeitlicher Behandlung (4-24h) (s. Graph 7). [formula]

KB/HeLa = experiment: XTT proliferation assay, KB/HeLa; format: cell-based; details: Homo sapiens, read-out: XTT Proliferationsassay, EC50 KB/Hela
From the text: as §2

SMILES: O=C(Nc1ccc2ncccc2c1)C(=O)c1cn(Cc2ccc(Cl)cc2)c2ccccc12 [Verbindung 2, 2-[1-(4-Chlor-benzyl)-1 H-indol-3-yl]-2-oxo-N-chinolin-6-yl-acetamid]
- AMES TA98 mit S9 ([1]; 2.5 µM): inaktiv
- AMES TA98 ohne S9 ([1]; 2.5 µM): inaktiv
- AMES TA98 mit S9 ([1]; 5 µM): inaktiv
- AMES TA98 ohne S9 ([1]; 5 µM): inaktiv
- AMES TA98 mit S9 ([1]; 10 µM): inaktiv
- AMES TA98 ohne S9 ([1]; 10 µM): inaktiv
- AMESTA100 mit S9 ([2]; 2.5 µM): inaktiv
- AMESTA100 ohne S9 ([2]; 2.5 µM): inaktiv
- AMESTA100 mit S9 ([2]; 5 µM): inaktiv
- AMESTA100 ohne S9 ([2]; 5 µM): inaktiv
- AMESTA100 mit S9 ([2]; 10 µM): inaktiv
- AMESTA100 ohne S9 ([2]; 10 µM): inaktiv
- EC50 (SF-268): 0.027 µg/mL (≈ 0.0614 µM)
- EC50 (KB/HeLa Zellen; HeLa, 24 h): 52.3 nM
- EC50 (NCI-H460): 0.054 µg/mL (≈ 0.123 µM)
- Tumorwachstum in Xenograft-Modellen [3]: das Tumorwachstum in verschiedenen Xenograft-Modellen hemmt
- Effekte 7 Tage nach Gabe ([4]; 5 mg/kg p.o.): Kein Effekt
- Effekte 1 h nach Gabe ([4]; 5 mg/kg p.o.): Kein Effekt
- Effekte 2 h nach Gabe ([4]; 5 mg/kg p.o.): Kein Effekt
- Effekte 24 h nach Gabe ([4]; 5 mg/kg p.o.): 2/6 Durchfall
- Temp. (rektal) ([4]; 5 mg/kg p.o.): 37.5 ± 0.2
- Effekte 7 Tage nach Gabe ([4]; 10 mg/kg p.o.): Kein Effekt
- Effekte 1 h nach Gabe ([4]; 10 mg/kg p.o.): 1/6 Aufregung 1/6 Hyperreaktivität 1/6 Reizbarkeit 2/6 Berührungsrea ktivität 1/6 Stimmfähigkeit
- Effekte 2 h nach Gabe ([4]; 10 mg/kg p.o.): 2/6 Schwanzhypert onie 1/6 Hyperreaktivität 1/6 Reizbarkeit 1/6 Berührungsrea ktivität 1/6 Stimmfähigkeit
- Effekte 24 h nach Gabe ([4]; 10 mg/kg p.o.): Kein Effekt
- Temp. (rektal) ([4]; 10 mg/kg p.o.): 37.1 ± 0.1
- Effekte 7 Tage nach Gabe ([4]; 20 mg/kg p.o.): Kein Effekt
- Effekte 1 h nach Gabe ([4]; 20 mg/kg p.o.): Kein Effekt
- Effekte 2 h nach Gabe ([4]; 20 mg/kg p.o.): Kein Effekt
- Effekte 24 h nach Gabe ([4]; 20 mg/kg p.o.): 1/6 Durchfall
- Temp. (rektal) ([4]; 20 mg/kg p.o.): 37.4 ± 0.1
- toxische Effekte im modifizierten Irwin-Grid Test ([4]; single dose 5, 10 and 20mg/kg, overall conclusion): keine toxischen Effekte
- Nucleosomen im Zelllysat (U-937 Zelllinie; cell lysate): konzentrations- und zeitabhängiger Anstieg von Nucleosomen im Zelllysat
- Nucleosomen im Zellkulturüberstand (U-937 Zelllinie; culture supernatant): kein signifikanter Anstieg
- EC50 (KB/HeLa): 0.027 µg/mL (≈ 0.0614 µM)

SMILES: O=C(Nc1cnc2nccnc2c1)C(=O)c1cn(Cc2ccc(Cl)cc2)c2ccccc12 [Verbindung 5, 2-[1-(4-Chlor-benzyl)-1H-indol-3-yl]-2-oxo-N-pyrido[2,3-b]pyrazin-7-yl-acetamid]
- EC50 (SF-268): 0.042 µg/mL (≈ 0.095 µM)
- EC50 (KB/HeLa Zellen; KB/HeLa, 24 h at 37°C, 0.1-1000 nM): 31.9 nM
- EC50 (NCI-H460): 0.046 µg/mL (≈ 0.104 µM)
- EC50 (KB/HeLa): 0.045 µg/mL (≈ 0.102 µM)
